The results in this text go back to patent US9115093B2, “Substituted bicyclic dihydropyrimidinones and their use as inhibitors of neutrophil elastase activity” (Boehringer Ingelheim International GmbH, priority 2013, dated 2015).

Data set [1] is described as follows: Drug transport across human CACO-2 cells. It is filed as in vitro ADME. From the text: Assay for Determination of Drug Transport Across Human CACO-2 Cells
The assay provides information on the potential of a compound to pass the cell membrane, on the extent of oral absorption as well as on whether the compound is actively transported by uptake and/or efflux transporters. For the measurement of permeability across polarized, confluent human cancer colon carcinoma cells 2 (Caco-2) cell monolayers grown on permeable filter supports are used as the in vitro absorption model. Apparent permeability coefficients (PE) of the compounds across the Caco-2 monolayers are measured (pH 7.2, 37° C.) in apical-to-basal (AB) (absorptive) and basal-to-apical (BA) (secretory) transport direction. AB permeability (PEAB) represents drug absorption from the intestine into the blood and BA permeability (PEBA) drug secretion from the blood back into the intestine via both passive permeability as well as active transport mechanisms mediated by efflux and uptake transporters that are expressed on the Caco-2 cells. The compounds are assigned to permeability/absorption classes by comparison of the AB permeabilities with the AB permeabilities of reference compounds with known in vitro permeability and oral absorption in the human. Identical or similar permeabilities in both transport directions indicate passive permeation, vectorial permeability points to additional active transport mechanisms. […] Active transport is concentration-dependently saturable.
Caco-2 cells (1−2*10^5 cells/cm^2 area) are seeded on filter inserts (Costar transwell polycarbonate or PET filters, […] pore size) and cultured (DMEM) for 10 to 25 days. Compounds are dissolved in appropriate solvent (like DMSO, 1-20 mM stock solutions). Stock solutions are diluted with HTP-4 buffer (128.13 mM NaCl, 5.36 mM KCl, 1 mM MgSO4, 1.8 mM CaCl2, 4.17 mM NaHCO3, 1.19 mM Na2HPO4×7H2O, 0.41 mM NaH2PO4×H2O, 15 mM HEPES, 20 mM glucose, pH 7.2) to prepare the transport solutions (typically […] compound, final DMSO <=0.5%). The transport solution (TL) is applied to the apical or basolateral donor side for measuring A-B or B-A permeability (3 filter replicates), respectively. The receiver side contains HTP-4 buffer supplemented with 2% BSA. Samples are collected at the start and end of experiment from the donor and at various time intervals for up to 2 hours also from the receiver side for concentration measurement by LC-MS/MS or scintillation counting. Sampled receiver volumes are is replaced with fresh receiver solution.
The apparent permeability coefficients (PEAB and PEBA) and efflux ratios (PEBA/PEAB) of selected compounds in the Caco-2 drug transport assay described above are listed in Table 17.
In general terms: Caco-2 monolayers are a common model of the intestinal barrier.

Data set [2] in a line: Aqueous solubility. The following applies: McIlvaine buffer with 2.5% DMSO; McIlvaine buffer pH 6.8, 2.5% DMSO, 24 h shaking. It is filed as physicochemical. As to the method:
Assay for Determination of Aqueous Solubility
The aqueous solubility of a compound is determined by comparing the amount dissolved in aqueous buffer (containing 2.5% DMSO) to the amount dissolved in an acetonitrile/water (1/1) solution. Starting from a 10 mM DMSO stock solution, aliquots are diluted with acetonitrile/water (1/1) and Mcllvaine buffer pH 6.8, respectively. After 24 h of shaking, the solutions or suspensions are filtered and analyzed by LC-UV. The amount dissolved in buffer is compared to the amount dissolved in the acetonitrile/water (1/1) solution. Solubility is measured from 0.001 to 0.125 mg/ml at a DMSO concentration of 2.5%. If more than 90% of the compound is dissolved in buffer, the value is marked with “>”.

The target of data set [3] is T1, neutrophil elastase (Homo sapiens, UniProt P08246).
T1 sequence (P08246 30-247 limits assumed): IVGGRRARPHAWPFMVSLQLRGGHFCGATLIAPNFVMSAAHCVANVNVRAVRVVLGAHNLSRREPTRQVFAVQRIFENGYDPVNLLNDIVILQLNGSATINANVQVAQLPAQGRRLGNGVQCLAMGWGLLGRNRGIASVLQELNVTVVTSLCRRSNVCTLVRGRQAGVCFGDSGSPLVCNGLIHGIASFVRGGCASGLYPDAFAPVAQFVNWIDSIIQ
Nature of the data set: Human Neutrophil Elastase Assay. In kind it is biochemical. Also noted: purchased Calbiochem 324681. The following applies: substrate MeOSuc-Ala-Ala-Pro-Val-AMC, pH 7.5, room temperature. The gist of the method: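 Readout: AMC fluorescence (ex 380, em 460 nm) after 60 min room-temperature reaction with 250 nM MeOSuc-AAPV-AMC, following 15 min compound–enzyme preincubation. Buffer: Tris/NaCl pH 7.5, 0.01% BSA.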

The target in data set [4] is T1, neutrophil elastase. Description: Neutrophil elastase inhibitory activity in human plasma. In kind it is biochemical. More on the design: The stimulated blood is centrifuged to generate the neutrophil elastase enriched plasma; from tissue; host or cells: plasma from zymosan-stimulated citrated whole blood of healthy human donors. The following applies: neutrophil elastase enriched human plasma (zymosan-stimulated blood), substrate MeOSuc-Ala-Ala-Pro-Val-AMC. As to the method:
Assay for the Determination of Neutrophil Elastase Inhibitory Activity in Human Plasma
Citrated blood from human healthy donors is mixed with zymosan suspension and incubated at room temperature. This leads to the stimulation of neutrophils and the release of neutrophil elastase into the plasma. The stimulated blood is centrifuged to generate the neutrophil elastase enriched plasma.
Preparation of Zymosan Working Solution:
• single 45 ml blood sample is taken into a 50 ml tube containing citrate (3.13%, 5 mL) and the tube is gently inverted 4 times. • Immediately after blood sampling, zymosan working solution (5 mL) is added. • After the addition of zymosan working solution, the tubes are capped, mixed gently and incubated at 22° C. for 15 min on a shaker at 20 rpm. • Make 10 ml aliquots after the incubation time. • Centrifuge the 15 ml tubes at 800 g for […] at 4° C. in a Jouan centrifuge. • Harvest the plasma and make 1-5 ml aliquots. • Store the plasma at −80° C.
Various concentrations of the neutrophil elastase inhibitor are incubated with plasma. Subsequently, the enzyme activity is measured using the fluorogenic substrate MeOSuc-Ala-Ala-Pro-Val-AMC (Bachem Cat. No. 1-1270, substrate concentration: 250 μM, pH 7.5, 25 mM TRIS buffer, 250 mM NaCl) in analogous fashion as described for the human neutrophil assay. A dose response curve is generated to calculate the EC50 of the inhibitor. The analysis of the data is performed by the calculation of the percentage of fluorescence in the presence of the test compound compared to the fluorescence of the vehicle control after subtracting the background fluorescence: An inhibitor of the neutrophil elastase enzyme will give values between 100% control (no inhibition) and 0% control (complete inhibition). The human plasma shift of selected compounds can be calculated using the following equation: Human plasma shift=(EC50 in human plasma assay)/(IC50 in human neutrophil elastase assay) The EC50 values of selected compounds in the human plasma assay described above are listed in Table 14.

Each structure is given as a SMILES string. ≈ marks a conversion by molar mass, not a printed value.

For orientation: efflux ratio means the permeability from basolateral to apical divided by that in the opposite direction, in the common usage. For orientation: solubility means the dissolved amount per volume that the medium holds. What is called IC50 is the concentration that gives 50% inhibition. A high value points to a need for much substance. As usually defined, the EC50 is the concentration at which the effect is half-maximal.

Consider `CN(C)CCNC(=O)N1C(=O)N(c2cccc(C(F)(F)F)c2)C2=C(C(=O)CCC2)C1c1ccc(C#N)cc1` (stereo not drawn) [Example 39.8], for which the Papp A→B at 10 nM in data set [1] (Caco-2 monolayers, apical-to-basal, pH 7.2, 37° C., read-out: PEAB) is 16.4 ×10⁻⁶ cm/s. The Papp B→A at 10 nM in data set [1] (Caco-2 monolayers, basal-to-apical, pH 7.2, 37° C., read-out: PEBA) amounted to 80.7 ×10⁻⁶ cm/s. In addition, the efflux ratio at 10 nM in data set [1] (pH 7.2, Caco-2, PEBA/PEAB) is 4.9. The solubility at 24 h in data set [2] was 98 µg/mL (≈ 186 µM). Moreover, the midpoint of inhibition in data set [3], the IC50, lay at 1.4 nM. In addition, the EC50 in data set [4] was determined as 6 nM.
